Tested on: 883617-216-R-J1-PDC complex spheroids, growth, % test/control
Test: Anticancer human tumor 883617-216-R-J1-PDC patient-derived bladder carcinoma cell line growth inhibition [AhR]
Conditions: for IC50: curve of first compound; for viability, T/C: stronger effect = lower value
How it was run: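 Agents were dosed in half-log steps down from roughly clinical Cmax, or from 10 microM where Cmax was unknown, alone and with AhR antagonists. Read-out: percent test/control growth of tumor spheroids containing HUVEC and MSC stromal cells.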

[1] = second compound 0.1 µM, first compound 0.0316 µM
[2] = second compound 0.1 µM, first compound 0.1 µM
[3] = second compound 0.1 µM, first compound 0.316 µM
[4] = second compound 0.1 µM, first compound 1 µM
[5] = second compound 0.1 µM, first compound 3.16 µM
[6] = second compound 0.1 µM, first compound 10 µM
[7] = second compound 0.316 µM, first compound 0.0316 µM
[8] = second compound 0.316 µM, first compound 0.1 µM
[9] = second compound 0.316 µM, first compound 0.316 µM
[10] = second compound 0.316 µM, first compound 1 µM
[11] = second compound 0.316 µM, first compound 3.16 µM
[12] = second compound 0.316 µM, first compound 10 µM
[13] = second compound 1 µM, first compound 0.0316 µM
[14] = second compound 1 µM, first compound 0.1 µM
[15] = second compound 1 µM, first compound 0.316 µM
[16] = second compound 1 µM, first compound 1 µM
[17] = second compound 1 µM, first compound 3.16 µM
[18] = second compound 1 µM, first compound 10 µM
[19] = second compound 3.16 µM, first compound 0.0316 µM
[20] = second compound 3.16 µM, first compound 0.1 µM
[21] = second compound 3.16 µM, first compound 0.316 µM
[22] = second compound 3.16 µM, first compound 1 µM
[23] = second compound 3.16 µM, first compound 3.16 µM
[24] = second compound 3.16 µM, first compound 10 µM
[25] = second compound 10 µM, first compound 0.0316 µM
[26] = second compound 10 µM, first compound 0.1 µM
[27] = second compound 10 µM, first compound 0.316 µM
[28] = second compound 10 µM, first compound 1 µM
[29] = second compound 10 µM, first compound 3.16 µM
[30] = second compound 10 µM, first compound 10 µM
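Note: exposure lasted 7 days after dosing on day 3 of spheroid growth.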

With `CC(C)c1c(-c2ccccc2)nc2c(C#N)c[nH]n2c1=O` + Cc1cncc(-c2nc(NCCc3c[nH]c4ccccc34)c3ncn(C(C)C)c3n2)c1 as the compound, how does the IC50 (second compound 0.1 µM) read?
The IC50 was greater than 10 µM.

And the IC50 (second compound 0.316 µM)?
Its IC50 is greater than 10 µM.

And the IC50 (second compound 1 µM)?
Its IC50 is greater than 10 µM.

What about the IC50 (second compound 3.16 µM) of the same compound?
Its IC50 is greater than 10 µM.

What about the IC50 (second compound 10 µM) of the same compound?
Its IC50 is 0.0681 µM.

What about the viability, T/C [1] of the same compound?
Its viability, T/C is 98.7%.

What about the viability, T/C [2] of the same compound?
Its viability, T/C is 93.8%.

And the viability, T/C [3]?
Its viability, T/C is 99.3%.

What about the viability, T/C [4] of the same compound?
The viability, T/C was 99.7%.

And the viability, T/C [5]?
The viability, T/C was 92.6%.

What about the viability, T/C [6] of the same compound?
The viability, T/C was 91.7%.

What about the viability, T/C [7] of the same compound?
The viability, T/C was 107%.

What about the viability, T/C [8] of the same compound?
Its viability, T/C is 91.8%.

What about the viability, T/C [9] of the same compound?
Its viability, T/C is 93%.

And the viability, T/C [10]?
Its viability, T/C is 97.6%.

What about the viability, T/C [11] of the same compound?
The viability, T/C was 103%.

What about the viability, T/C [12] of the same compound?
The viability, T/C was 94%.

And the viability, T/C [13]?
The viability, T/C was 96.6%.

What about the viability, T/C [14] of the same compound?
The viability, T/C was 114%.

And the viability, T/C [15]?
The viability, T/C was 107%.

What about the viability, T/C [16] of the same compound?
Its viability, T/C is 104%.

And the viability, T/C [17]?
The viability, T/C was 102%.

What about the viability, T/C [18] of the same compound?
The viability, T/C was 111%.

What about the viability, T/C [19] of the same compound?
The viability, T/C was 105%.

And the viability, T/C [20]?
Its viability, T/C is 109%.

What about the viability, T/C [21] of the same compound?
The viability, T/C was 115%.

What about the viability, T/C [22] of the same compound?
The viability, T/C was 105%.

And the viability, T/C [23]?
The viability, T/C was 111%.

What about the viability, T/C [24] of the same compound?
The viability, T/C was 121%.

What about the viability, T/C [25] of the same compound?
Its viability, T/C is 53.4%.

And the viability, T/C [26]?
Its viability, T/C is 48.5%.

And the viability, T/C [27]?
The viability, T/C was 48.4%.

What about the viability, T/C [28] of the same compound?
Its viability, T/C is 41.7%.

And the viability, T/C [29]?
Its viability, T/C is 43.5%.

What about the viability, T/C [30] of the same compound?
The viability, T/C was 55.4%.

For `CC1COCCN1c1cc(-c2ccnn2C)c2ccnc(-c3ccn[nH]3)c2n1` (stereo not given) + Cc1cncc(-c2nc(NCCc3c[nH]c4ccccc34)c3ncn(C(C)C)c3n2)c1, which IC50 (second compound 0.1 µM) is on record?
Its IC50 is greater than 1 µM.

And the IC50 (second compound 0.316 µM)?
Its IC50 is greater than 1 µM.

And the IC50 (second compound 1 µM)?
The IC50 was greater than 1 µM.

What about the IC50 (second compound 3.16 µM) of the same compound?
The IC50 was greater than 1 µM.

What about the IC50 (second compound 10 µM) of the same compound?
The IC50 was less than 0.00316 µM.

And the viability, T/C (second compound 0.1 µM, first compound 0.00316 µM)?
Its viability, T/C is 94.9%.

What about the viability, T/C (second compound 0.1 µM, first compound 0.01 µM) of the same compound?
The viability, T/C was 92.8%.

And the viability, T/C [1]?
Its viability, T/C is 83.7%.

And the viability, T/C [2]?
Its viability, T/C is 76.5%.

And the viability, T/C [3]?
The viability, T/C was 61.5%.

What about the viability, T/C [4] of the same compound?
The viability, T/C was 53.9%.

And the viability, T/C (second compound 0.316 µM, first compound 0.00316 µM)?
Its viability, T/C is 101%.

And the viability, T/C (second compound 0.316 µM, first compound 0.01 µM)?
The viability, T/C was 103%.

What about the viability, T/C [7] of the same compound?
The viability, T/C was 98.5%.

What about the viability, T/C [8] of the same compound?
Its viability, T/C is 77.3%.

And the viability, T/C [9]?
The viability, T/C was 60.2%.

What about the viability, T/C [10] of the same compound?
The viability, T/C was 54.5%.

What about the viability, T/C (second compound 1 µM, first compound 0.00316 µM) of the same compound?
Its viability, T/C is 96.1%.

What about the viability, T/C (second compound 1 µM, first compound 0.01 µM) of the same compound?
The viability, T/C was 107%.

What about the viability, T/C [13] of the same compound?
The viability, T/C was 95.9%.

And the viability, T/C [14]?
Its viability, T/C is 76%.

What about the viability, T/C [15] of the same compound?
Its viability, T/C is 70.3%.

And the viability, T/C [16]?
The viability, T/C was 60.5%.

What about the viability, T/C (second compound 3.16 µM, first compound 0.00316 µM) of the same compound?
The viability, T/C was 115%.

And the viability, T/C (second compound 3.16 µM, first compound 0.01 µM)?
Its viability, T/C is 113%.

What about the viability, T/C [19] of the same compound?
Its viability, T/C is 117%.

And the viability, T/C [20]?
The viability, T/C was 87.6%.

What about the viability, T/C [21] of the same compound?
Its viability, T/C is 72.7%.

And the viability, T/C [22]?
The viability, T/C was 55.9%.

What about the viability, T/C (second compound 10 µM, first compound 0.00316 µM) of the same compound?
Its viability, T/C is 45.3%.

And the viability, T/C (second compound 10 µM, first compound 0.01 µM)?
The viability, T/C was 50.8%.

And the viability, T/C [25]?
Its viability, T/C is 51.5%.

And the viability, T/C [26]?
The viability, T/C was 39.8%.

What about the viability, T/C [27] of the same compound?
Its viability, T/C is 30.9%.

What about the viability, T/C [28] of the same compound?
The viability, T/C was 27.4%.

With `COc1ccc([C@@H](O)c2cc(-c3ncnc4cc(N5CCOCC5)ccc34)c(F)cc2Cl)nn1` + Cc1cncc(-c2nc(NCCc3c[nH]c4ccccc34)c3ncn(C(C)C)c3n2)c1 as the compound, how does the IC50 (second compound 0.1 µM) read?
Its IC50 is 2.65 µM.

What about the IC50 (second compound 0.316 µM) of the same compound?
Its IC50 is 2.4 µM.

What about the IC50 (second compound 1 µM) of the same compound?
The IC50 was 4.07 µM.

What about the IC50 (second compound 3.16 µM) of the same compound?
The IC50 was 3.53 µM.

And the IC50 (second compound 10 µM)?
The IC50 was less than 0.0316 µM.

What about the viability, T/C [1] of the same compound?
Its viability, T/C is 89.8%.

What about the viability, T/C [2] of the same compound?
Its viability, T/C is 82.6%.

What about the viability, T/C [3] of the same compound?
The viability, T/C was 78.2%.

What about the viability, T/C [4] of the same compound?
The viability, T/C was 67.5%.

And the viability, T/C [5]?
The viability, T/C was 45.5%.

What about the viability, T/C [6] of the same compound?
Its viability, T/C is 34.1%.

And the viability, T/C [7]?
The viability, T/C was 93.6%.

And the viability, T/C [8]?
The viability, T/C was 103%.

And the viability, T/C [9]?
The viability, T/C was 87.9%.

And the viability, T/C [10]?
The viability, T/C was 67.1%.

What about the viability, T/C [11] of the same compound?
The viability, T/C was 45.6%.

What about the viability, T/C [12] of the same compound?
Its viability, T/C is 35.3%.

And the viability, T/C [13]?
The viability, T/C was 100%.

What about the viability, T/C [14] of the same compound?
Its viability, T/C is 95.4%.

And the viability, T/C [15]?
The viability, T/C was 85.9%.

What about the viability, T/C [16] of the same compound?
The viability, T/C was 76.7%.

What about the viability, T/C [17] of the same compound?
Its viability, T/C is 50.7%.

What about the viability, T/C [18] of the same compound?
The viability, T/C was 39.3%.

And the viability, T/C [19]?
The viability, T/C was 103%.

What about the viability, T/C [20] of the same compound?
The viability, T/C was 102%.

And the viability, T/C [21]?
The viability, T/C was 94.9%.

And the viability, T/C [22]?
The viability, T/C was 79.9%.

What about the viability, T/C [23] of the same compound?
Its viability, T/C is 51.4%.

What about the viability, T/C [24] of the same compound?
The viability, T/C was 33.3%.

What about the viability, T/C [25] of the same compound?
The viability, T/C was 39.6%.

What about the viability, T/C [26] of the same compound?
Its viability, T/C is 39.3%.

What about the viability, T/C [27] of the same compound?
Its viability, T/C is 38.9%.

What about the viability, T/C [28] of the same compound?
Its viability, T/C is 30.4%.

And the viability, T/C [29]?
The viability, T/C was 19.2%.

What about the viability, T/C [30] of the same compound?
The viability, T/C was 10.9%.

Reference: PubChem BioAssay AID1919004 (Molecular Pharmacology Branch, DTP, NCI, 2023)
